pIC50: −log10 of the molar value.
Key:
[1] = tested on: OPM-2 human multiple myeloma cell line; test: Cell Viability Assay (OPM-2 10 FBS); type: cell-based; details: OPM-2 cells, 16 h, CellTiter-Glo
Procedure, shortened: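 Plated at 3000 cells/well in 10% FBS complete medium, the cells received a serial compound dilution series and incubated 16 h at 37 °C with 5% CO2. CellTiter-Glo was then added; IC50 values were fitted with a logistic 4-parameter model.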

[2] = target: T1, Mcl-1/Bim interaction, recombinant human Mcl-1 (171-327) (Homo sapiens, UniProt Q07820); test: Cell free Mcl-1: Bim Affinity Assay (Mcl-1 HTRF); type: binding
T1 construct: made in house
T1 sequence (Q07820 171-327): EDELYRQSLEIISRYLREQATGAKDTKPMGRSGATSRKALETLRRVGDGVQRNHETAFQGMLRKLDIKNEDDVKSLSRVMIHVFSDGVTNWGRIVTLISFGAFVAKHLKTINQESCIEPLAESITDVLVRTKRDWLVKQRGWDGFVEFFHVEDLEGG
Procedure, shortened: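 Read-out is time-resolved FRET after overnight incubation, using a biotin-labelled peptide from human Bim (51-76) as the binding partner; IC50 was derived from competition curves.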

[3] = TR-FRET, 0.1 nM Mcl-1 (171-327), 0.05 nM biotin-Bim (51-76)
[4] = cell free Mcl-1:Bim TR-FRET, recombinant human Mcl-1 (171-327)

Row | pIC50 ([1]; Homo sapiens, OPM-2, 16 h) | Structure (SMILES) | pIC50 [1] | pIC50 [2, 3] | pIC50 [2, 4]
1 | – | COCC[C@H]1[C@@H](C)C/C=C/[C@H](OC)[C@@H]2CC[C@H]2CN2C[C@@]3(CCCc4cc(Cl)ccc43)COc3ccc(cc32)C(=O)NS1(=O)=O (single isomer, unassigned) [Example 396] | 6.73 | 9.42 | –
2 | – | COCCO[C@H]1/C=C/C[C@H](C)[C@@H](CCOC)S(=O)(=O)NC(=O)c2ccc3c(c2)N(C[C@@H]2CC[C@H]21)C[C@@]1(CCCc2cc(Cl)ccc21)CO3 (single isomer, unassigned) [Example 397] | 6.84 | 9.64 | –
3 | – | COCC[C@@H]1[C@@H](C)C/C=C/[C@H](OCCN2CCOCC2)[C@@H]2CC[C@H]2CN2C[C@@]3(CCCc4cc(Cl)ccc43)COc3ccc(cc32)C(=O)NS1(=O)=O (single isomer, unassigned) [Example 398] | 7.05 | 9.63 | –
4 | – | COCCOCC[C@@H]1[C@@H](C)C/C=C/[C@H](O)[C@@H]2CC[C@H]2CN2C[C@@]3(CCCc4cc(Cl)ccc43)COc3ccc(cc32)C(=O)NS1(=O)=O (single isomer, unassigned) [Example 399] | 6.78 | 9.62 | –
5 | – | COCCOCC[C@@H]1[C@@H](C)C/C=C/[C@H](O)[C@@H]2CC[C@H]2CN2C[C@@]3(CCCc4cc(Cl)ccc43)COc3ccc(cc32)C(=O)NS1(=O)=O (single isomer, unassigned) [Example 401] | 6.34 | 9.27 | –
6 | – | COCCOCC[C@@H]1[C@@H](C)C/C=C/[C@H](O)[C@@H]2CC[C@H]2CN2C[C@@]3(CCCc4cc(Cl)ccc43)COc3ccc(cc32)C(=O)NS1(=O)=O (single isomer, unassigned) [Example 402] | 4.87 | 7.73 | –
7 | 6.79 | C[C@@H]1CC/C=C/[C@H](O[C@@H]2CCOC2=O)[C@@H]2CC[C@H]2CN2C[C@@]3(CCCc4cc(Cl)ccc43)COc3ccc(cc32)C(=O)NS1(=O)=O (single isomer, unassigned) [Example 414] | – | 9.73 | –
8 | 6.51 | CCC(OC1C=CCCC(C)S(=O)(=O)NC(=O)c2ccc3c(c2)N(CC2CCC21)CC1(CCCc2cc(Cl)ccc21)CO3)C(=O)N(C)C (single isomer, unassigned) [Example 419] | – | 9.48 | –
9 | – | CC[C@@H](O[C@H]1/C=C/CC[C@@H](C)S(=O)(=O)NC(=O)c2ccc3c(c2)N(C[C@@H]2CC[C@H]21)C[C@@]1(CCCc2cc(Cl)ccc21)CO3)C(=O)N(C)C (single isomer, unassigned) [Example 421] | 6.17 | 9.16 | –
10 | 6.61 | CCC1CCC=CC(OC2CCOC2=O)C2CCC2CN2CC3(CCCc4cc(Cl)ccc43)COc3ccc(cc32)C(=O)NS1(=O)=O (single isomer, unassigned) [Example 424] | – | 9.30 | –
11 | – | CC[C@@H]1CC/C=C/[C@H](O[C@H]2CCOC2=O)[C@@H]2CC[C@H]2CN2C[C@@]3(CCCc4cc(Cl)ccc43)COc3ccc(cc32)C(=O)NS1(=O)=O (single isomer, unassigned) [Example 425] | 6.52 | 9.40 | –
12 | – | C[C@@H]1[C@@H](C)C/C=C/[C@H](O[C@H]2CCOC2=O)[C@@H]2CC[C@H]2CN2C[C@@]3(CCCc4cc(Cl)ccc43)COc3ccc(cc32)C(=O)NS1(=O)=O (single isomer, unassigned) [Example 427] | 6.69 | 9.38 | –
13 | 6.75 | C[C@@H]1[C@@H](C)C/C=C/[C@H](O[C@@H]2CCOC2=O)[C@@H]2CC[C@H]2CN2C[C@@]3(CCCc4cc(Cl)ccc43)COc3ccc(cc32)C(=O)NS1(=O)=O (single isomer, unassigned) [Example 428] | – | 9.48 | –
14 | – | CC(C)C[C@H](O[C@H]1/C=C/C[C@H](C)[C@@H](C)S(=O)(=O)NC(=O)c2ccc3c(c2)N(C[C@@H]2CC[C@H]21)C[C@@]1(CCCc2cc(Cl)ccc21)CO3)C(=O)N(C)C (single isomer, unassigned) [Example 429] | 5.88 | 8.38 | –
15 | – | CC[C@H](O[C@H]1/C=C/C[C@H](C)[C@@H](C)S(=O)(=O)NC(=O)c2ccc3c(c2)N(C[C@@H]2CC[C@H]21)C[C@@]1(CCCc2cc(Cl)ccc21)CO3)C(=O)N(C)C (single isomer, unassigned) [Example 430] | 6.66 | 9.13 | –
16 | – | CC[C@@H](O[C@H]1/C=C/C[C@H](C)[C@@H](C)S(=O)(=O)NC(=O)c2ccc3c(c2)N(C[C@@H]2CC[C@H]21)C[C@@]1(CCCc2cc(Cl)ccc21)CO3)C(=O)N(C)C (single isomer, unassigned) [Example 431] | 6.85 | 9.29 | –
17 | – | CO[C@H]1/C=C/CC[C@@H](CO)S(=O)(=O)NC(=O)c2ccc3c(c2)N(C[C@@H]2CC[C@H]21)C[C@@]1(CCCc2cc(Cl)ccc21)CO3 (single isomer, unassigned) [Example 446] | 6.38 | 9.31 | –
18 | – | CO[C@H]1/C=C/CC[C@@H](C(=O)N(C)C)S(=O)(=O)NC(=O)c2ccc3c(c2)N(C[C@@H]2CC[C@H]21)C[C@@]1(CCCc2cc(Cl)ccc21)CO3 (single isomer, unassigned) [Example 452] | 6.11 | 9.56 | –

Row | pIC50 ([1]; Homo sapiens, OPM-2, 16 h) | Structure (SMILES) | pIC50 [1] | pIC50 [2, 3] | pIC50 [2, 4]
19 | – | COC1C=CCCC(C(=O)N(C)C)S(=O)(=O)NC(=O)c2ccc3c(c2)N(CC2CCC21)CC1(CCCc2cc(Cl)ccc21)CO3 (single isomer, unassigned) [Example 453] | 4.68 | 8.17 | –
20 | 7.15 | COC[C@@H]1[C@@H](C)C/C=C/[C@H](O)[C@@H]2CC[C@H]2CN2C[C@@]3(CCCc4cc(Cl)ccc43)COc3ccc(cc32)C(=O)NS1(=O)=O (single isomer, unassigned) [Example 455] | – | 9.78 | –
21 | 6.53 | COC[C@H]1[C@@H](C)C/C=C\[C@H](O)[C@@H]2CC[C@H]2CN2C[C@@]3(CCCc4cc(Cl)ccc43)COc3ccc(cc32)C(=O)NS1(=O)=O (single isomer, unassigned) [Example 457] | – | 9.58 | –
22 | – | CC[C@H]1[C@H](OC)C/C=C/[C@H](O)[C@@H]2CC[C@H]2CN2C[C@@]3(CCCc4cc(Cl)ccc43)COc3ccc(cc32)C(=O)NS1(=O)=O (single isomer, unassigned) [Example 459] | 5.48 | 8.47 | –
23 | 6.88 | COCC1C(C)CC=CC(OC)C2CCC2CN2CC3(CCCc4cc(Cl)ccc43)COc3ccc(cc32)C(=O)NS1(=O)=O (single isomer, unassigned) [Example 460] | – | 9.48 | –
24 | – | COC[C@H]1[C@@H](C)C/C=C/[C@H](OC)[C@@H]2CC[C@H]2CN2C[C@@]3(CCCc4cc(Cl)ccc43)COc3ccc(cc32)C(=O)NS1(=O)=O (single isomer, unassigned) [Example 461] | 6.11 | 8.75 | –
25 | 6.91 | COCCOC1C=CCC(C)C(COC)S(=O)(=O)NC(=O)c2ccc3c(c2)N(CC2CCC21)CC1(CCCc2cc(Cl)ccc21)CO3 (single isomer, unassigned) [Example 463] | – | 9.38 | –
26 | – | COCCO[C@H]1/C=C/C[C@H](C)[C@H](COC)S(=O)(=O)NC(=O)c2ccc3c(c2)N(C[C@@H]2CC[C@H]21)C[C@@]1(CCCc2cc(Cl)ccc21)CO3 (single isomer, unassigned) [Example 464] | 6.19 | 8.83 | –
27 | – | CCOC[C@@H]1[C@@H](C)C/C=C/[C@H](O)[C@@H]2CC[C@H]2CN2C[C@@]3(CCCc4cc(Cl)ccc43)COc3ccc(cc32)C(=O)NS1(=O)=O (single isomer, unassigned) [Example 466] | 6.89 | 9.48 | –
28 | – | CCOC[C@H]1[C@@H](C)C/C=C/[C@H](O)[C@@H]2CC[C@H]2CN2C[C@@]3(CCCc4cc(Cl)ccc43)COc3ccc(cc32)C(=O)NS1(=O)=O (single isomer, unassigned) [Example 467] | 5.82 | 8.84 | –
29 | 6.58 | C=C1[C@@H](C)C/C=C/[C@H](O)[C@@H]2CC[C@H]2CN2C[C@@]3(CCCc4cc(Cl)ccc43)COc3ccc(cc32)C(=O)NS1(=O)=O (single isomer, unassigned) [Example 468] | – | 9.53 | –
30 | – | CCOC[C@@H]1[C@@H](C)C/C=C/[C@H](OC)[C@@H]2CC[C@H]2CN2C[C@@]3(CCCc4cc(Cl)ccc43)COc3ccc(cc32)C(=O)NS1(=O)=O (single isomer, unassigned) [Example 469] | 6.48 | 9.01 | –
31 | – | CC[C@@H]1[C@@H](OCCOC)C/C=C/[C@H](O)[C@@H]2CC[C@H]2CN2C[C@@]3(CCCc4cc(Cl)ccc43)COc3ccc(cc32)C(=O)NS1(=O)=O (single isomer, unassigned) [Example 470] | 6.45 | – | 9.14
32 | 6.85 | COCC1CC(C)C=CC(O)C2CCC2CN2CC3(CCCc4cc(Cl)ccc43)COc3ccc(cc32)C(=O)NS1(=O)=O (single isomer, unassigned) [Example 471] | – | – | 9.73
33 | – | COC[C@@H]1C[C@H](C)/C=C/[C@H](O)[C@@H]2CC[C@H]2CN2C[C@@]3(CCCc4cc(Cl)ccc43)COc3ccc(cc32)C(=O)NS1(=O)=O (single isomer, unassigned) [Example 472] | 6.69 | – | 9.57
34 | – | COC[C@@H]1C[C@@H](C)/C=C/[C@H](OC)[C@@H]2CC[C@H]2CN2C[C@@]3(CCCc4cc(Cl)ccc43)COc3ccc(cc32)C(=O)NS1(=O)=O (single isomer, unassigned) [Example 473] | 6.80 | – | 9.43
35 | – | COCC[C@@H]1C[C@@H](C)/C=C/[C@H](O)[C@@H]2CC[C@H]2CN2C[C@@]3(CCCc4cc(Cl)ccc43)COc3ccc(cc32)C(=O)NS1(=O)=O (single isomer, unassigned) [Example 477] | 6.54 | – | 9.51
36 | – | COCC[C@@H]1C[C@H](C)/C=C/[C@H](O)[C@@H]2CC[C@H]2CN2C[C@@]3(CCCc4cc(Cl)ccc43)COc3ccc(cc32)C(=O)NS1(=O)=O (single isomer, unassigned) [Example 478] | 6.33 | – | 9.71

Source: patent publication US12091425B2 (AMGEN INC., priority 2016, dated 2024)
